Assay results: US9212168B2 (priority 2011, dated 2015)

test system: HCV genotype 1a replicon; experiment: HCV genotype 1a replicon assay (NS3 protease activity readout); type: cell-based, hepatitis C virus; conditions: HCV genotype 1a replicon
Description: Assay 2: HCV Genotype 1a Replicon Assay
The HCV genotype 1a replicon cell line was obtained from Apath LLC (APC89; Huh7.5 cell background). This subgenomic replicon contains the N-terminus of the HCV core protein fused to the neomycin-resistance selectable marker. The EMCV IRES lies downstream and drives expression of the non-structural proteins NS3-NS5B. Compound potencies were determined using the NS3-specific protease activity in lysates as a measurement of compound inhibition of replicon levels.
Cells were grown at 37° C. in a 5% CO2 humidified incubator in DMEM (Invitrogen) with 10% FBS (HyClone), 1×NEAA (Invitrogen), 1× Pen-Strep (Invitrogen), and 850 μg/mL G418 (Invitrogen). On day 1 of the assay, cells were plated at 15,000 cells/well in black 96-well tissue culture plates (Costar) in 200 μL media lacking G418. Four hours later, once the cells had adhered, the media was removed and replaced with media (no G418) containing dose-responses of test compounds. Compounds were initially diluted in DMSO and then diluted another 200× in media to bring the final DMSO concentration down to 0.5%. The cells were incubated with test compounds for 48 or 72 hours. At the end of the incubation period, media and compound were removed from the plates.
To determine the NS3-specific protease activity in lysates, the cells were lysed at room temperature in 50 μL/well of 50 mM Hepes pH 7.5, 150 mM NaCl, 15% Glycerol, 0.15% Triton X-100, 10 mM DTT for 20 minutes with shaking. 50 μL of an NS3/4a protease-specific FRET substrate (Anaspec RET S1 Cat#22991) was then added to the wells at a final concentration of 15 μM. The plates were incubated at 37° C. for 20 minutes, which corresponds to a timepoint at which the protease activity is still in the linear phase. Protease activity was determined by measuring fluorescence (Excitation: 340 nm; Emission: 509 nm).
To analyze the data, the fluorescence was plotted vs. the compound concentration, and EC50 values were determined from a 4-parameter robust fit model using GraphPad Prism software.

Row | SMILES | Genotype 1a
1 | COC(=O)NC(C(=O)N1CC(C)CC1c1nc(-c2ccc(-c3cc(Cl)c(NC(=O)c4ccc(N5CCN(C(=O)C6CC6(F)Cl)CC5C)nc4)cc3OC(F)(F)F)cc2)c[nH]1)C(C)C (mixture of isomers) [Example 1-59] | D (D represents pEC50>10 (EC50<0.1 nM))
2 | COC(=O)NC(C(=O)N1CC(C)CC1c1nc(-c2ccc(-c3cc(F)c(NC(=O)c4ccc(N5CCN(C(=O)C6CC6(F)Cl)CC5C)nc4)cc3OC(F)(F)F)cc2)c[nH]1)C(C)C (mixture of isomers) [Example 1-60] | D (D represents pEC50>10 (EC50<0.1 nM))
3 | COC(=O)NC(C(=O)N1CC(C)CC1c1nc(-c2ccc(-c3cc(F)c(NC(=O)c4ccc(N5CCN(C(=O)C6CC6(Cl)Cl)CC5C)nc4)cc3Cl)cc2)c[nH]1)C(C)C (mixture of isomers) [Example 1-77] | D (D represents pEC50>10 (EC50<0.1 nM))
4 | COC(=O)N[C@H](C(=O)N1C[C@@H](C)C[C@H]1c1nc(-c2ccc(-c3cc(Cl)c(NC(=O)c4ccc(N5CCN(C(=O)C6CC6(Cl)Cl)C[C@H]5C)nc4)cc3OC(F)(F)F)cc2)c[nH]1)C(C)C (single isomer, unassigned) [Example 1-56] | D (D represents pEC50>10 (EC50<0.1 nM))
5 | COC(=O)N[C@H](C(=O)N1C[C@@H](C)C[C@H]1c1nc(-c2ccc(-c3cc(Cl)c(NC(=O)c4ccc(N5CCN(C(=O)C6CC6(Cl)Cl)C[C@H]5C)nc4)cc3OC(F)(F)F)cc2)c[nH]1)C(C)C (single isomer, unassigned) [Example 1-57] | D (D represents pEC50>10 (EC50<0.1 nM))
6 | COC(=O)NC(C(=O)N1C[C@@H](C)C[C@H]1c1nc(-c2ccc(-c3cc(Cl)c(NC(=O)c4ccc(N5CCN(C(=O)C(C)(C)CO)C[C@H]5C)nc4)cc3C(F)(F)F)cc2)c[nH]1)C1CCS(=O)(=O)CC1 (single isomer, unassigned) [Example 19-1] | D (D represents pEC50>10 (EC50<0.1 nM))
7 | COC(=O)NC(C(=O)N1C[C@@H](OC)C[C@H]1c1nc(-c2ccc(-c3cc(Cl)c(NC(=O)c4ccc(N5CCN(C(=O)C(C)(C)CO)C[C@H]5C)nc4)cc3C(F)(F)F)cc2)c[nH]1)C1CCS(=O)(=O)CC1 (single isomer, unassigned) [Example 19-12] | D (D represents pEC50>10 (EC50<0.1 nM))
8 | COC(=O)NC(C(=O)N1C[C@@H](OC)C[C@H]1c1nc(-c2ccc(-c3cc(Cl)c(NC(=O)c4ccc(N5CCN(C(=O)C(C)(C)C)C[C@H]5C)nc4)cc3C(F)(F)F)cc2)c[nH]1)C1CCS(=O)(=O)CC1 (single isomer, unassigned) [Example 19-18] | C (C represents pEC50 between and 9 and about 10, (EC50 between 1 nM and 0.1 nM))
9 | COC(=O)N[C@H](C(=O)N1C[C@@H](C)C[C@H]1c1nc(-c2ccc(-c3cc(Cl)c(C(=O)Nc4ccc(N5CCN(C(=O)C(C)(C)C)C[C@@H]5C)nc4)cc3OC(F)(F)F)cc2)c[nH]1)C1CCOCC1 [24-2] | C (C represents pEC50 between and 9 and about 10, (EC50 between 1 nM and 0.1 nM))
10 | COC(=O)N[C@H](C(=O)N1C[C@H](C)C[C@H]1c1nc(-c2ccc(-c3cc(Cl)c(C(=O)Nc4ccc(N5CCN(C(=O)C(C)(C)C)C[C@H]5C)nc4)cc3OC(F)(F)F)cc2)c[nH]1)C1CCOCC1 [24-5] | C (C represents pEC50 between and 9 and about 10, (EC50 between 1 nM and 0.1 nM))
11 | COC(=O)N[C@H](C(=O)N1C[C@@H](C)C[C@H]1c1nc(-c2ccc(-c3cc(F)c(NC(=O)c4ccc(N5C[C@H](C)N(C(=O)c6c[nH]cn6)C[C@H]5C)nc4)cc3C(F)(F)F)cc2)c[nH]1)C(C)C [Example 1-21] | D (D represents pEC50>10 (EC50<0.1 nM))
12 | CNC(=O)N1CCC[C@@]1(C)C(=O)N1CCN(c2ccc(C(=O)Nc3cc(OC(F)(F)F)c(-c4ccc(-c5c[nH]c([C@@H]6C[C@H](C)CN6C(=O)[C@@H](NC(=O)OC)C(C)C)n5)cc4)cc3Cl)cn2)[C@H](C)C1 [Example 1-22] | D (D represents pEC50>10 (EC50<0.1 nM))
13 | CNC(=O)N1CCC[C@@]1(C)C(=O)N1C[C@@H](C)N(c2ccc(C(=O)Nc3cc(OC(F)(F)F)c(-c4ccc(-c5c[nH]c([C@@H]6C[C@H](C)CN6C(=O)[C@@H](NC(=O)OC)C(C)C)n5)cc4)cc3Cl)cn2)C[C@@H]1C [Example 1-23] | D (D represents pEC50>10 (EC50<0.1 nM))
14 | CNC(=O)N1CCC[C@@]1(C)C(=O)N1C[C@@H](C)N(c2ccc(C(=O)Nc3cc(OC(F)(F)F)c(-c4ccc(-c5c[nH]c([C@@H]6C[C@H](C)CN6C(=O)[C@@H](NC(=O)OC)C(C)C)n5)cc4)cc3F)cn2)C[C@@H]1C [Example 1-24] | D (D represents pEC50>10 (EC50<0.1 nM))
15 | COC(=O)N[C@H](C(=O)N1C[C@@H](C)C[C@H]1c1nc(-c2ccc(-c3cc(F)c(NC(=O)c4ccc(N5CCN(C(=O)c6c[nH]cn6)C[C@H]5C)nc4)cc3OC(F)(F)F)cc2)c[nH]1)C(C)C [Example 1-25] | D (D represents pEC50>10 (EC50<0.1 nM))
16 | COC(=O)N[C@H](C(=O)N1C[C@@H](C)C[C@H]1c1nc(-c2ccc(-c3cc(F)c(NC(=O)c4ccc(N5CCN(C(=O)[C@]6(C)CCCN6C(=O)OC(C)(C)C)C[C@H]5C)nc4)cc3OC(F)(F)F)cc2)c[nH]1)C(C)C [Example 1-26] | D (D represents pEC50>10 (EC50<0.1 nM))
17 | COC(=O)N[C@H](C(=O)N1C[C@@H](C)C[C@H]1c1nc(-c2ccc(-c3cc(F)c(NC(=O)c4ccc(N5CCN(C(=O)[C@]6(C)CCCN6)C[C@H]5C)nc4)cc3OC(F)(F)F)cc2)c[nH]1)C(C)C [Example 1-27] | C (C represents pEC50 between and 9 and about 10, (EC50 between 1 nM and 0.1 nM))
18 | CNC(=O)N1CCC[C@@]1(C)C(=O)N1CCN(c2ccc(C(=O)Nc3cc(OC(F)(F)F)c(-c4ccc(-c5c[nH]c([C@@H]6C[C@H](C)CN6C(=O)[C@@H](NC(=O)OC)C(C)C)n5)cc4)cc3F)cn2)[C@H](C)C1 [Example 1-28] | D (D represents pEC50>10 (EC50<0.1 nM))
19 | COC(=O)N[C@H](C(=O)N1C[C@@H](C)C[C@H]1c1nc(-c2ccc(-c3cc(F)c(NC(=O)c4ccc(N5CCN(C(=O)c6c[nH]cn6)C[C@H]5C)nc4)cc3C(F)(F)F)cc2)c[nH]1)C(C)C [Example 1-29] | D (D represents pEC50>10 (EC50<0.1 nM))
20 | COC(=O)N[C@H](C(=O)N1C[C@@H](C)C[C@H]1c1nc(-c2ccc(-c3cc(Cl)c(NC(=O)c4ccc(N5CCN(C(=O)[C@H]6CC6(C)C)C[C@H]5C)nc4)cc3C(F)(F)F)cc2)c[nH]1)C(C)C [Example 1-31] | D (D represents pEC50>10 (EC50<0.1 nM))
21 | COC(=O)N[C@H](C(=O)N1C[C@@H](C)C[C@H]1c1nc(-c2ccc(-c3cc(Cl)c(NC(=O)c4ccc(N5CCN(C(=O)c6c[nH]cn6)C[C@H]5C)nc4)cc3C(F)(F)F)cc2)c[nH]1)C(C)C [Example 1-32] | D (D represents pEC50>10 (EC50<0.1 nM))
22 | COC(=O)N[C@H](C(=O)N1C[C@@H](C)C[C@H]1c1nc(-c2ccc(-c3cc(Cl)c(NC(=O)c4ccc(N5CCN(C(=O)c6cn(C)cn6)C[C@H]5C)nc4)cc3OC(F)(F)F)cc2)c[nH]1)C(C)C [Example 1-33] | C (C represents pEC50 between and 9 and about 10, (EC50 between 1 nM and 0.1 nM))
23 | COC(=O)N[C@H](C(=O)N1C[C@@H](C)C[C@H]1c1nc(-c2ccc(-c3cc(Cl)c(NC(=O)c4ccc(N5CCN(C(=O)[C@H]6CCCN6C(=O)OC)C[C@H]5C)nc4)cc3OC(F)(F)F)cc2)c[nH]1)C(C)C [Example 1-37] | D (D represents pEC50>10 (EC50<0.1 nM))
24 | CNC(=O)N1CCC[C@@H]1C(=O)N1CCN(c2ccc(C(=O)Nc3cc(OC(F)(F)F)c(-c4ccc(-c5c[nH]c([C@@H]6C[C@H](C)CN6C(=O)[C@@H](NC(=O)OC)C(C)C)n5)cc4)cc3Cl)cn2)[C@H](C)C1 [Example 1-38] | D (D represents pEC50>10 (EC50<0.1 nM))
25 | COC(=O)N[C@H](C(=O)N1C[C@@H](C)C[C@H]1c1nc(-c2ccc(-c3cc(Cl)c(NC(=O)c4ccc(N5CCN(C(=O)[C@H]6CCCN6S(C)(=O)=O)C[C@H]5C)nc4)cc3OC(F)(F)F)cc2)c[nH]1)C(C)C [Example 1-39] | D (D represents pEC50>10 (EC50<0.1 nM))
26 | COC(=O)N[C@H](C(=O)N1C[C@@H](C)C[C@H]1c1nc(-c2ccc(-c3cc(Cl)c(NC(=O)c4ccc(N5CCN(C(=O)C6CC6)C[C@H]5C)nc4)cc3OC(F)(F)F)cc2)c[nH]1)C(C)C [Example 1-42] | D (D represents pEC50>10 (EC50<0.1 nM))
27 | CNC(=O)N1CCC[C@@H]1C(=O)N1C[C@@H](C)N(c2ccc(C(=O)Nc3cc(OC(F)(F)F)c(-c4ccc(-c5c[nH]c([C@@H]6C[C@H](C)CN6C(=O)[C@@H](NC(=O)OC)C(C)C)n5)cc4)cc3Cl)cn2)C[C@@H]1C [Example 1-44] | D (D represents pEC50>10 (EC50<0.1 nM))
28 | COC(=O)N[C@H](C(=O)N1C[C@@H](C)C[C@H]1c1nc(-c2ccc(-c3cc(Cl)c(NC(=O)c4ccc(N5C[C@H](C)N(C(=O)[C@H]6CCCN6S(C)(=O)=O)C[C@H]5C)nc4)cc3OC(F)(F)F)cc2)c[nH]1)C(C)C [Example 1-45] | D (D represents pEC50>10 (EC50<0.1 nM))
